Data as given in patent US20230167058A1, “GPX4 COMPOUNDS AND COMPOSITIONS AND METHODS OF TREATMENT USING SAME” (THE TRUSTEES OF COLUMBIA UNIVERSITY IN THE CITY OF NEW YORK, priority 2020, published 2023).
Where a chain is given by its changes, count along the chain named.

Assays:
GPX4^allCys(−) A46C = target: T1, GPX4^allCys(−) A46C (Homo sapiens, UniProt P36969, C102S/C134A/C175A/C37A/C64S/C93A/U73C); assay: Intact protein MALDI MS analysis, GPX4^allCys(−) A46C; format: binding; details: only cys46 present
T1 construct: His (cleaved yes); made in house; host or cells: E. coli BL21-Gold (DE3)
T1 sequence (P36969 33-197 C37A/C64S/U73C/C93A/C102S/C134A/C175A): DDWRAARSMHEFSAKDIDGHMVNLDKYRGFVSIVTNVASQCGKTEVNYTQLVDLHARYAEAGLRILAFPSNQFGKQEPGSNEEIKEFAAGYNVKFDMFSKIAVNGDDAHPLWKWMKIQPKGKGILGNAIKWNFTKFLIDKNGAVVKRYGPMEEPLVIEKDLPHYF
Experimental: GPX4^U46C or GPX4^AllCys(−)-A46C protein was pre-incubated with DMSO control or the inhibitor to be tested prior to MALDI MS analysis: 50 μM GPX4 protein was incubated with 500 μM inhibitors in FPLC buffer (100 mM Tris pH 8.0, 300 mM NaCl, and 3 mM TCEP) with 5% DMSO at RT for 1 hour before transferring to 4° C. overnight.
1 μl of the ligand-free protein (pre-incubated with DMSO) or protein-inhibitor complex (pre-incubated with the inhibitor to be tested) was mixed with 9 μl of 10 mg/ml sinapinic acid in the matrix solution (70:30 water/acetonitrile, with 0.1% TFA). 1.0 μl of the final mix was deposited onto the target carrier and allowed to air dry. MALDI spectrum was recorded using Bruker ultrafleXtreme MALDI-TOF instrument. The range of m/z detection and suppression was adjusted to accommodate the molecular weight of target protein. 2000 Hz and 50% intensity was applied for the laser setting. For each sample, five cumulative spectra were collected and the sum was recorded for analysis. All MALDI spectra of protein-inhibitor complex were compared with ligand-free protein to determine the mass shift. Mass shifts were aligned with the mass of potential staying group of each inhibitor to conclude covalent binding.

[1] = test system: allCys(−) A66C GPX4 in G401 cells; assay: Western blot GPX4 degradation study in G401; format: cell-based; details: 2 or 4 μM RSL3, 10 h, 10 μM Fer-1
Experimental: For the GPX4 degradation study, G-401 cells were seeded at 800,000 per well in a 60-mm plate and allowed to adhere overnight. Cells were then treated with 10 μM Fer-1 and 0 (vehicle), 2 or 4 μM RSL3 for 10 h. Cells were harvested with trypsin (Invitrogen, 25200-114), pelleted, and lysed with RIPA buffer.
For the quantification of GPX4 protein level for cellular viability and GPX4-specific activity assay, each cell line subject to the cellular viability and GPX4-specific activity was tested by Western Blot in technical duplicates. In particular, cells were harvested with trypsin (Invitrogen, 25200-114), pelleted, and lysed by LCW lysis buffer (0.5% TritonX-100, 0.5% sodium deoxycholate salt, 150 mM NaCl, 20 mM Tris-HCl pH 7.5, 10 mM EDTA, 30 mM Na-pyrophosphate, and cOmplete protease inhibitor cocktail). While part of the cell lysates was blotted for protein quantification, the other part of lysates was used for the GPX4-specific activity assay. For both experiments, cell lysates were blotted and imaged as previously described (Yang et al. 2014). Antibodies used were GPX4 (Abcam, ab125066, 1:250 dilution) and actin (Cell Signaling, D18C11, 1:3,000 dilution). Results were quantified using a LI-COR Odyssey CLx IR scanner, ImageJ, and GraphPad Prism 9.

cancer cells = details: cited from earlier work
GPX4 = target: T2, GPX4 (Homo sapiens, UniProt P36969, U73C); assay: Microscale thermophoresis (MST) binding to GPX4; details: Table 1
T2 sequence (P36969 33-197 U73C): T1 sequence (P36969 33-197 C37A/C64S/U73C/C93A/C102S/C134A/C175A) with A5C, S32C, A61C, S70C, A102C, A143C
Description: Therefore, we applied a strategy of computer-facilitated design, based on MD simulation (Desmond) and Glide docking (Schrödinger Suite), and experimental high-throughput screening of a lead-optimized compound library of 10,000 compounds (FIGS. 6A-6E). All candidates were first evaluated by thermal denaturation assay and microscale thermophoresis (MST) to validate binding to GPX4 (Table 1). Surface plasmon resonance (SPR) and isothermal titration calorimetry (ITC) were then applied to precisely measure their binding kinetics and affinities, while ^1H-^15N heteronuclear single-quantum coherence (HSQC) NMR spectroscopy informed us of binding sites. We optimized two GPX4-specific activity assays to examine enzymatic inhibitory effects of hit compounds—LC-MS-based substrate/product monitoring and an NADPH-coupled assay. […] Some L880 analogues were also synthesized and tested (Table 2).

MST (GPX4) | Kd (GPX4; read-out: MST Kd) | Compound | covalent modification of cys46 (mass shift) by MALDI MS (GPX4^allCys(−) A46C) | RSL3-induced degradation of allCys(−) A66C GPX4 [1] | potency to induce ferroptosis (cancer cells)
 |  | COC(=O)c1ccc([C@@H]2c3[nH]c4ccccc4c3C[C@@H](C(=O)OC)N2C(=O)CCl)cc1 [RSL3, (1S, 3R)-RSL3] | no mass shift | does-dependent degradation of allCys(−) A66C GPX4 | nanomolar potencies
positive | 100 µM | COc1cccc2[nH]c(C(=O)n3ccnc3)cc12 [LOC1886] |  |  | 
